In patent publication US11479551B2, “MTA-cooperative PRMT5 inhibitors” (Mirati Therapeutics, Inc., priority 2019, dated 2022) one finds IC50 data, which are given here for 26 molecules.

The target of this test is PRMT5/MEP50 complex (Homo sapiens (Human), UniProt O14744). The test can be described thus: PRMT5:MEP50 FlashPlate Assay (histone H4 peptide substrate, plus and minus MTA). The test is classed as biochemical. As to the method: The PRMT5 inhibitory activity of compounds of the present invention was determined using either a PRMT5:MEP50 FlashPlate Assay (Reaction Biology Corporation) or a PRMT5:MEP50 HotSpot Assay (Reaction Biology Corporation).
1. PRMT5:MEP50 FlashPlate Assay

Where [1] appears, read: IC50 + 2 μM MTA (nM), in the presence of 2 μM MTA.
The mark [2] stands for this setting: in the absence of MTA, read-out: IC50.

Where two headings read alike, the source gives them in different places.

PRMT5/MEP50 complex, sequence (O14744 2-637): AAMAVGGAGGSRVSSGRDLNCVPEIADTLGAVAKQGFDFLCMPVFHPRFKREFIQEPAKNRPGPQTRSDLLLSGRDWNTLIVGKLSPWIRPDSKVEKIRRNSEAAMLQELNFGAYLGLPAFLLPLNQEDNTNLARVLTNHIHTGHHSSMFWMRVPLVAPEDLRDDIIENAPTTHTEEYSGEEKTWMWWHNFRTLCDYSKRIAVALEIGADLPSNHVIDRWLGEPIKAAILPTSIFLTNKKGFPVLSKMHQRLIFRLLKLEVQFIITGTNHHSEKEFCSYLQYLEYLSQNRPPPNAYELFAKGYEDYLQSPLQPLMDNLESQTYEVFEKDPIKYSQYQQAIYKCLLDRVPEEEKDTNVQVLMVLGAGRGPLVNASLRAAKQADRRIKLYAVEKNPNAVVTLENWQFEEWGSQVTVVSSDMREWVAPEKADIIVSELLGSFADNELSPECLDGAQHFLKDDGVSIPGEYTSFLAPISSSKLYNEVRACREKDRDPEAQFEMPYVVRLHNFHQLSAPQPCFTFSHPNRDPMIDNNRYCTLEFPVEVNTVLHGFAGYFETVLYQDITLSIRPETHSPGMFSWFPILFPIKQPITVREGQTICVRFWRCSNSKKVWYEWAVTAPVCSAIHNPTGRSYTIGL
PRMT5/MEP50 complex, sequence (Q9BQA1 2-342 partner): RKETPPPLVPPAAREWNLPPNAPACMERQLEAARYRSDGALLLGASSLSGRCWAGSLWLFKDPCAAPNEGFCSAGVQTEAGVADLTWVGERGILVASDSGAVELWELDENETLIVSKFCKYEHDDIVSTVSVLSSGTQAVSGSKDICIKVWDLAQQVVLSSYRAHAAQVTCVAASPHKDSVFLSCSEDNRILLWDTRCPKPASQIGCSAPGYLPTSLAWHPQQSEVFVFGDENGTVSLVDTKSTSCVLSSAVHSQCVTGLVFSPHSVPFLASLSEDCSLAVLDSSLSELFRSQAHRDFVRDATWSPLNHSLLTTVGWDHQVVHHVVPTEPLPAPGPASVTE

Take `Cn1ncc(-c2ccc3c(=O)[nH]nc(CN)c3c2)c1-c1cccc(Cl)c1` [Example 4-92, 4-(aminomethyl)-6-(5-(3-chlorophenyl)-1-methyl-1H-pyrazol-4-yl)phthalazin-1(2H)-one]: the 50% inhibitory concentration (IC50) (as a rule, the concentration at which inhibition is half-maximal) is 3.5 nM under setting [1] and 137 nM under setting [2].
In the case of `NCc1n[nH]c(=O)c2ccc(C3CCOC3)cc12` (racemic) [Example 5-2, (R,S)-4-(aminomethyl)-6-(THF-3-yl)phthalazin-1(2H)-one], the 50% inhibitory concentration (IC50) was 57000 nM under setting [1] and above 100000 nM under setting [2].
Turning to `N#Cc1ccc(F)cc1-c1cncc(-c2ccc3c(=O)[nH]nc(CN)c3c2)c1` [Example 8-1, 2-(5-(4-(aminomethyl)-1-oxo-1,2-dihydrophthalazin-6-yl)pyridin-3-yl)-4-fluorobenzonitrile], the IC50 is 47 nM under setting [1] and 1650 nM under setting [2].
For `Cn1ncc(-c2cncc(-c3ccc4c(=O)[nH]nc(CN)c4c3)c2)c1C#N` [Example 4-8, 4-(5-(4-(aminomethyl)-1-oxo-1,2-dihydrophthalazin-6-yl)pyridin-3-yl)-1-methyl-1H-pyrazole-5-carbonitrile], the concentration for half-maximal inhibition (IC50) is, setting by setting: under setting [1], 440 nM; under setting [2], above 100000 nM.
In the same order, the values of `NCc1n[nH]c(=O)c2cc(Nc3ccccc3)ccc12` [Example 6-3, 4-(aminomethyl)-7-anilino-2H-phthalazin-1-one] are 9400 nM and above 100000 nM.
With `NCc1n[nH]c(=O)c2ccc(-c3cncc(OC(F)(F)F)c3)cc12` [Example 4-9, 4-(aminomethyl)-6-(5-(trifluoromethoxy)pyridin-3-yl)phthalazin-1(2H)-one], the half-maximal inhibitory concentration (IC50) under setting [1] amounted to 590 nM and the half-maximal inhibitory concentration (IC50) under setting [2] amounted to 16000 nM.
As to `COc1ccc(C#N)c(-c2cncc(-c3ccc4c(=O)[nH]nc(CN)c4c3)c2)c1` [Example 8-8, 2-(5-(4-(aminomethyl)-1-oxo-1,2-dihydrophthalazin-6-yl)pyridin-3-yl)-4-methoxybenzonitrile], the IC50 reads like this: under setting [1], 20 nM; under setting [2], 795 nM.
On to `N#Cc1ccc(Cl)cc1-c1cncc(-c2ccc3c(=O)[nH]nc(CN)c3c2)c1` [Example 8-6, 2-(5-(4-(aminomethyl)-1-oxo-1,2-dihydrophthalazin-6-yl)pyridin-3-yl)-4-chlorobenzonitrile], for which the IC50 by setting is: under setting [1], 52 nM; under setting [2], 2140 nM.
With `NCc1n[nH]c(=O)c2ccc(-c3cncc(N4CCOCC4)c3)cc12` [Example 3-58, 4-(aminomethyl)-6-(5-morpholinopyridin-3-yl)phthalazin-1(2H)-one], the IC50 by setting is: under setting [1], 510 nM; under setting [2], 8070 nM.
In the case of `CC(=O)N1CCn2ncc(-c3ccc4c(=O)[nH]nc(CN)c4c3)c2C1` [Example 4-84, 6-(5-acetyl-4,5,6,7-tetrahydropyrazolo[1,5-a]pyrazin-3-yl)-4-(aminomethyl)phthalazin-1(2H)-one], the half-inhibitory concentration (IC50) worked out at 93 nM under setting [1] and 4040 nM under setting [2].
As to `NCc1n[nH]c(=O)c2ccc(-c3cnn4c3CN(C3CC3)CC4)cc12` [Example 4-82, 4-(aminomethyl)-6-(5-cyclopropyl-4,5,6,7 tetrahydropyrazolo[1,5-a]pyrazin-3-yl)phthalazin-1(2H)-one], the 50% inhibitory concentration (IC50) was determined as 28 nM under setting [1] and 1340 nM under setting [2].
With `NCc1n[nH]c(=O)c2ccc(-c3cncc(Oc4ccc(F)cc4)c3)cc12` [Example 7-3, 4-(aminomethyl)-6-(5-(4-fluorophenoxy)pyridin-3-yl)phthalazin-1(2H)-one], the 50% inhibitory concentration (IC50) came out at 15 nM under setting [1] and 388 nM under setting [2].
Regarding `NCc1n[nH]c(=O)c2ccc(-c3cnc4ccc(OC(F)(F)F)cn34)cc12` [Example 4-38, 4-(aminomethyl)-6-(6-(trifluoromethoxy)imidazo[1,2-a]pyridin-3-yl)phthalazin-1(2H)-one], the IC50 by setting is: under setting [1], 25 nM; under setting [2], 850 nM.
Turning to `NCc1n[nH]c(=O)c2ccc(-c3cncc(O)c3)cc12` [Example 3-44, 4-(aminomethyl)-6-(5-hydroxypyridin-3-yl)phthalazin-1(2H)-one], the half-inhibitory concentration (IC50) worked out at 1200 nM under setting [1] and 19400 nM under setting [2].
Consider `NCc1n[nH]c(=O)c2ccc(-c3cncc(Oc4cccc(F)c4)c3)cc12` [Example 4-65, 4-(aminomethyl)-6-(5-(3-fluorophenoxy)pyridin-3-yl)phthalazin-1(2H)-one], for which the IC50 is, setting by setting: under setting [1], 16 nM; under setting [2], 517 nM.
Taken in the same sequence, the figures for `NCc1n[nH]c(=O)c2ccc(-c3cncc(CC4CC4)c3)cc12` [Example 3-35, 4-(aminomethyl)-6-(5-(cyclopropylmethyl)pyridin-3-yl)phthalazin-1(2H)-one] were 59 nM and 1530 nM.
For `CC(C)Cn1cc(-c2ccc3c(=O)[nH]nc(CN)c3c2)cn1` [Example 3-27, 4-(aminomethyl)-6-(1-isobutyl-1H-pyrazol-4-yl)phthalazin-1(2H)-one], the IC50 by setting is: under setting [1], 4200 nM; under setting [2], 59000 nM.
In the case of `NCc1n[nH]c(=O)c2ccc(-c3cncc(Cc4ccccc4)c3)cc12` [Example 4-50, 4-(aminomethyl)-6-(5-benzylpyridin-3-yl)phthalazin-1(2H)-one], the IC50 runs as follows: under setting [1], 22 nM; under setting [2], 456 nM.
In the case of `NCc1n[nH]c(=O)c2ccc(-c3cncc(C4CC4)c3)cc12` [Example 3-33, 4-(aminomethyl)-6-(5-cyclopropylpyridin-3-yl)phthalazin-1(2H)-one], the half-inhibitory concentration (IC50) came out at 61 nM under setting [1] and 1570 nM under setting [2].
As for `NCc1n[nH]c(=O)c2ccc(-c3cnc4ccc(Cl)nn34)cc12` [Example 4-18, 4-(aminomethyl)-6-(6-chloroimidazo[1,2-b]pyridazin-3-yl)phthalazin-1(2H)-one], the concentration for half-maximal inhibition (IC50) is, setting by setting: under setting [1], 280 nM; under setting [2], 4420 nM.
Take `NCc1n[nH]c(=O)c2ccc(-c3cnc4c(F)cccn34)cc12` [Example 4-22, 4-(aminomethyl)-6-(8-fluoroimidazo[1,2-a]pyridin-3-yl)phthalazin-1(2H)-one]: the half-maximal inhibitory concentration (IC50) is, setting by setting: under setting [1], 370 nM; under setting [2], 8680 nM.
With `Cc1nn(C)c(C)c1-c1ccc2c(=O)[nH]nc(CN)c2c1` [Example 3-24, 4-(aminomethyl)-6-(1,3,5-trimethyl-1H-pyrazol-4-yl)phthalazin-1(2H)-one], the concentration for half-maximal inhibition (IC50) is, setting by setting: under setting [1], 20000 nM; under setting [2], above 100000 nM.
Turning to `NCc1n[nH]c(=O)c2ccc(-c3cnc4[nH]cc(F)c4c3)cc12` [Example 4-42, 4-(aminomethyl)-6-(3-fluoro-1H-pyrrolo[2,3-b]pyridin-5-yl)phthalazin-1(2H)-one], the IC50 runs as follows: under setting [1], 45 nM; under setting [2], 1380 nM.
On to `CCn1cc(-c2ccc3c(=O)[nH]nc(CN)c3c2)cn1` [Example 3-15, 4-(aminomethyl)-6-(1-ethyl-1H-pyrazol-4-yl)phthalazin-1(2H)-one], for which the half-maximal inhibitory concentration (IC50) is, setting by setting: under setting [1], 650 nM; under setting [2], 18700 nM.
On to `NCc1n[nH]c(=O)c2ccc(-c3cncc(S(=O)(=O)c4ccccc4)c3)cc12` [Example 4-52, 4-(aminomethyl)-6-(5-(phenylsulfonyl)pyridin-3-yl)phthalazin-1(2H)-one], for which the concentration for half-maximal inhibition (IC50) under setting [1] stood at 18 nM and the concentration for half-maximal inhibition (IC50) under setting [2] is 669 nM.
Take `NCc1n[nH]c(=O)c2ccc(-c3cnn4c3CN(C(=O)C3CC3)CC4)cc12` [Example 4-85, 4-(aminomethyl)-6-(5-(cyclopropanecarbonyl)-4,5,6,7-tetrahydropyrazolo[1,5-a]pyrazin-3-yl)phthalazin-1(2H)-one]: the half-maximal inhibitory concentration (IC50) runs as follows: under setting [1], 29 nM; under setting [2], 1910 nM.
